These results are taken from ChEMBL document CHEMBL4043088, “Design of novel HIV-1 protease inhibitors incorporating isophthalamide-derived P2-P3 ligands: Synthesis, biological evaluation and X-ray structural studies of inhibitor-HIV-1 protease complex” (Bioorg Med Chem, 2017).

Usually pIC50 stands for the IC50 on a negative log10 scale, so that one unit is a factor of ten. Broadly, the pKi is −log10 of the Ki, conventionally taken in molar units.

pIC50, pKi: −log10 of the molar value. Where only a bound is given, the exact number is not on record here.

In experiment [1] the test system is Human immunodeficiency virus 1. In words: Antiviral activity against HIV1 LAI infected in human MT2 cells assessed as reduction in p24 Gag protein production incubated for 6 days by automated chemiluminescent enzyme immunoassay. Type of experiment: functional, cell-based. Conditions: Human immunodeficiency virus 1, LAI, MT2, 144 h.
The nature of experiment [2]: Inhibition of HIV1 protease using fluorogenic substrate by continuous fluorometric assay. Also on record: species or system Human immunodeficiency virus 1.

Turning to `COc1ccc(S(=O)(=O)N(CC(C)C)C[C@@H](O)[C@H](Cc2ccccc2)NC(=O)c2cccc(C(=O)N3CCCC[C@@H]3c3nc(C)cs3)c2)cc1`, in experiment [1], the pIC50 is 6.66. This compound had a pKi in experiment [2] of 9.28.
For the compound `COc1ccc(S(=O)(=O)N(CC(C)C)C[C@@H](O)[C@H](Cc2ccccc2)NC(=O)c2cccc(C(=O)N3CCC[C@@H]3c3nc(C)cs3)c2)cc1`, the negative-log IC50 (pIC50) in experiment [1] was 7.16. The compound further showed a pKi in experiment [2] of 10.60.
For `CNc1cc(C(=O)N[C@@H](Cc2ccccc2)[C@H](O)CN(CC(C)C)S(=O)(=O)c2ccc(OC)cc2)cc(C(=O)N(C)Cc2nc(C)oc2C)c1`, in that order: 6.22 and 8.29.
Regarding `COc1ccc(S(=O)(=O)N(CC(C)C)C[C@@H](O)[C@H](Cc2ccccc2)NC(=O)c2ccccc2C(=O)N(C)Cc2nc(C)oc2C)cc1`, the pIC50 in experiment [1] is below 6.00. In experiment [2], this compound showed a pKi of 6.20.
Turning to `COCc1coc([C@H]2CCCN2C(=O)c2cccc(C(=O)N[C@@H](Cc3ccccc3)[C@H](O)CN(CC(C)C)S(=O)(=O)c3ccc(OC)cc3)c2)n1`, the pIC50 in experiment [1] was 6.49. Also, the pKi in experiment [2] was 9.10.
For `Cc1csc([C@H]2CCCN2C(=O)c2cccc(C(=O)N[C@@H](Cc3ccccc3)[C@H](O)CN(CC(C)C)S(=O)(=O)c3ccc(CO)cc3)c2)n1`, in that order: 6.79 and 9.10.
For `COc1ccc(S(=O)(=O)N(CC(C)C)C[C@@H](O)[C@H](Cc2ccccc2)NC(=O)c2cccc(C(=O)N(C)Cc3nc(C)co3)c2)cc1`, in that order: 6.24 and 9.20.
Regarding `COc1ccc(S(=O)(=O)N(CC(C)C)C[C@@H](O)[C@H](Cc2ccccc2)NC(=O)c2cccc(CN3CCC[C@@H]3c3nc(C)cs3)c2)cc1`, in experiment [2], the pKi was 7.63.
`COc1ccc(S(=O)(=O)N(CC(C)C)C[C@@H](O)[C@H](Cc2ccccc2)NC(=O)c2cccc(C(=O)N3CCC[C@@H]3c3nc(C)co3)c2)cc1`: the pIC50 in experiment [1] was 7.48. In addition, the pKi in experiment [2] was 9.39.
For `COc1ccc(S(=O)(=O)N(CC(C)C)C[C@@H](O)[C@H](Cc2ccccc2)NC(=O)c2cccc(C(=O)N(C)Cc3csc(C)n3)c2)cc1`, in that order: 7.49 and 9.97.
In the same order, the values of `COc1ccc(S(=O)(=O)N(CC(C)C)C[C@@H](O)[C@H](Cc2ccccc2)NC(=O)c2cccc(C(=O)N3CCC[C@H]3c3nc(C)cs3)c2)cc1` are below 6.00 and 7.51.
In turn, `COc1ccc(S(=O)(=O)N(CC(C)C)C[C@@H](O)[C@H](Cc2ccccc2)NC(=O)c2cncc(C(=O)N3CCC[C@@H]3c3nc(C)cs3)c2)cc1` had a pKi in experiment [2] of 8.60.
With `COc1ccc(S(=O)(=O)N(CC(C)C)C[C@@H](O)[C@H](Cc2ccccc2)NC(=O)c2cccc(C(=O)N3CC[C@@H](c4nc(C)cs4)C3)c2)cc1`, in experiment [1], the pIC50 is 6.55. In addition, the pKi in experiment [2] was 9.31.
In the same order, the values of `Cc1csc([C@H]2CCCN2C(=O)c2cccc(C(=O)N[C@@H](Cc3ccccc3)[C@H](O)CN(CC(C)C)S(=O)(=O)c3ccc(N)cc3)c2)n1` are 6.72 and 8.79.
For `COc1ccc(S(=O)(=O)N(CC(C)C)C[C@@H](O)[C@H](Cc2ccccc2)NC(=O)c2cccc(C(=O)N3CC[C@H](c4nc(C)cs4)C3)c2)cc1`, in that order: 6.96 and 9.40.
As for `COc1ccc(S(=O)(=O)N(CC(C)C)C[C@@H](O)[C@H](Cc2ccccc2)NC(=O)c2cccc(C(=O)N(C)Cc3coc(C)n3)c2)cc1`, in experiment [1], the pIC50 is 7.64. Also, the pKi in experiment [2] was 9.19.
For `COc1ccc(S(=O)(=O)N(CC(C)C)C[C@@H](O)[C@H](Cc2ccccc2)NC(=O)c2cccc(C(=O)N(C)Cc3nc(C)oc3C)c2)cc1`, the pIC50 in experiment [1] was 7.51. The pKi in experiment [2] is 9.68.
`COc1ccc(S(=O)(=O)N(CC(C)C)C[C@@H](O)[C@H](Cc2ccccc2)NC(=O)c2ccc(C(=O)N(C)Cc3nc(C)oc3C)cc2)cc1`: the pIC50 in experiment [1] is below 6.00. The compound further gave a pKi in experiment [2] of 7.15.
For `COc1ccc(S(=O)(=O)N(CC(C)C)C[C@@H](O)[C@H](Cc2ccccc2)NC(=O)c2cccc(C(=O)N3CSC[C@@H]3c3nc(C)cs3)c2)cc1`, in that order: 7.49 and 9.12.
For `COc1ccc(S(=O)(=O)N(CC(C)C)C[C@@H](O)[C@H](Cc2ccccc2)NC(=O)c2cc(O)cc(C(=O)N(C)Cc3nc(C)oc3C)c2)cc1`, in that order: 6.54 and 9.29.
